Two compounds from ChEMBL document CHEMBL4507319 (2021) can be followed below.

The target in experiment [1] is Histamine H3 receptor (Homo sapiens) (UniProt Q9Y5N1). Conditions: Compound concentration 10.0 uM.
Experiment [2] addresses T1, Serine/threonine-protein kinase 17B (Homo sapiens) (UniProt O94768).
T1 sequence (whole entry): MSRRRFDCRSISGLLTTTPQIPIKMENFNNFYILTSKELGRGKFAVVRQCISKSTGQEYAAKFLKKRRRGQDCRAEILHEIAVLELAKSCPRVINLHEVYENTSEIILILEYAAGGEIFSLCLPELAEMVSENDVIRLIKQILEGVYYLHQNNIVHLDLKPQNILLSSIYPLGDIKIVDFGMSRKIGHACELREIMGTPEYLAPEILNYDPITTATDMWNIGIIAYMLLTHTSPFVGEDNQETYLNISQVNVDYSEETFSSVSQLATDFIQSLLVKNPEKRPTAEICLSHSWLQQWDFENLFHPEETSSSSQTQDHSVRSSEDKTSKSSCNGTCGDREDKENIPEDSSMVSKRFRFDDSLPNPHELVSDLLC
The experiment can be described thus: DRAK2(h) Eurofins kinase panel. Conditions: Compound concentration 1.0 uM.

The target of experiment [3] is T2, Serine/threonine-protein kinase Chk1 (Homo sapiens) (UniProt O14757).
T2 sequence (whole entry): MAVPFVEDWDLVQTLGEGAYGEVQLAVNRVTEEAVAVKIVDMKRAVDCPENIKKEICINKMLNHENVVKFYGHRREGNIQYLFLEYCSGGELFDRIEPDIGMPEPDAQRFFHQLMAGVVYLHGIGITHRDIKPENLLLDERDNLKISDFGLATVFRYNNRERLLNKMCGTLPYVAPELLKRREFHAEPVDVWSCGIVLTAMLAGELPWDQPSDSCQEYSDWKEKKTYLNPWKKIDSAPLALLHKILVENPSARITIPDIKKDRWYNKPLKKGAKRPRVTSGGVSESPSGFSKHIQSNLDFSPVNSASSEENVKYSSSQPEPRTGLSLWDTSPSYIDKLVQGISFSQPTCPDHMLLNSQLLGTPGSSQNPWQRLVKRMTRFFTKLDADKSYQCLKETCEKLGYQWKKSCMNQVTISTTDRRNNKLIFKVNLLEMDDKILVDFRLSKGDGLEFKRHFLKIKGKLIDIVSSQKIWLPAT
The experiment can be described thus: CHK1(h) Eurofins kinase panel. Conditions: Compound concentration 1.0 uM.

For experiment [4], the target named is Epidermal growth factor receptor (Homo sapiens) (UniProt P00533). The experiment can be described thus: EGFR(h) Eurofins kinase panel. The note with it: Compound concentration 1.0 uM.
Experiment [5] addresses Leucine-rich repeat serine/threonine-protein kinase 2 (Homo sapiens) (UniProt Q5S007). The experiment can be described thus: LRRK2(h) Eurofins kinase panel. The note with it: Compound concentration 1.0 uM.
Experiment [6] has as its target Tyrosine-protein kinase Fgr (Homo sapiens) (UniProt P09769). The experiment can be described thus: Fgr(h) Eurofins kinase panel. Conditions: Compound concentration 1.0 uM.
For experiment [7], the target named is Leukocyte tyrosine kinase receptor (Homo sapiens) (UniProt P29376). The experiment can be described thus: LTK(h) Eurofins kinase panel. Conditions: Compound concentration 1.0 uM.
Experiment [8] concerns the target T3, Dual specificity mitogen-activated protein kinase kinase 7 (Homo sapiens) (UniProt O14733).
T3 sequence (whole entry): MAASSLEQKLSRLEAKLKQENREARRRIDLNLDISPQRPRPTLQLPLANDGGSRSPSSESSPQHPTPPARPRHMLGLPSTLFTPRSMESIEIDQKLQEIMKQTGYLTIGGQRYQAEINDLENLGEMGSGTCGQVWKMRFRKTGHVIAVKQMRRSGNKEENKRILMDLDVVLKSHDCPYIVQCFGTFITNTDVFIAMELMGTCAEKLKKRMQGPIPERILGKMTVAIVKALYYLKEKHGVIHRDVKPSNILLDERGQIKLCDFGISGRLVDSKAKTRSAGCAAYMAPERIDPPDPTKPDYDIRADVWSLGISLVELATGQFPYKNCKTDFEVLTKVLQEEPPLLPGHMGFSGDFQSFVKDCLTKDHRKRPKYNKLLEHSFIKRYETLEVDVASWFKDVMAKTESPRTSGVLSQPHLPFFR
The experiment can be described thus: MKK7beta(h) Eurofins kinase panel. Conditions: Compound concentration 1.0 uM.

Experiment [9] has as its target Serine/threonine-protein kinase tousled-like 2 (Homo sapiens) (UniProt Q86UE8). The experiment can be described thus: TLK2(h) Eurofins kinase panel. Conditions: Compound concentration 1.0 uM.
Experiment [10] has as its target Tyrosine-protein kinase HCK (Homo sapiens) (UniProt P08631). The experiment can be described thus: Hck(h) activated Eurofins kinase panel. The note with it: Compound concentration 1.0 uM.
Another experiment deals with SNU-398. The experiment can be described thus: Snu398 cell line Proliferation assay. The note with it: time 3 day. The format is functional, Homo sapiens.
Experiment [11] addresses Calcium/calmodulin-dependent protein kinase type 1B (Homo sapiens) (UniProt Q6P2M8). The experiment can be described thus: CaMKIbeta(h) Eurofins kinase panel. The note with it: Compound concentration 1.0 uM.
In experiment [12] the target is Receptor-interacting serine/threonine-protein kinase 2 (Homo sapiens) (UniProt O43353). The experiment can be described thus: RIPK2(h) Eurofins kinase panel. The note with it: Compound concentration 1.0 uM.
Sequence of Receptor-interacting serine/threonine-protein kinase 2 (Homo sapiens) (O43353 whole entry): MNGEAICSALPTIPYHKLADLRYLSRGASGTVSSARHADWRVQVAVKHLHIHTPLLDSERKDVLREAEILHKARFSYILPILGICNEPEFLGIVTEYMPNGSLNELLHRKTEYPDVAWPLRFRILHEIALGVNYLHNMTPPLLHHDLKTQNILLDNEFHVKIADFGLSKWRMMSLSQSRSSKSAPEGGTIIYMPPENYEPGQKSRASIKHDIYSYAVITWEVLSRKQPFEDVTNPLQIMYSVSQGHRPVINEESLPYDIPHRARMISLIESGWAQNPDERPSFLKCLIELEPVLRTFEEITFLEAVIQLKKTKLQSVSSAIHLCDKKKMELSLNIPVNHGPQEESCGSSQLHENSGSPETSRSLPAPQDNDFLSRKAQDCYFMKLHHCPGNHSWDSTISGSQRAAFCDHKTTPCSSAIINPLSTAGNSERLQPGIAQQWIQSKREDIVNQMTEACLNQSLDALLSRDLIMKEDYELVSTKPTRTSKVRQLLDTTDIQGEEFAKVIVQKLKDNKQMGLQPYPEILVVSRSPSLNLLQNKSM
A further experiment concerns PANC-1. The experiment can be described thus: PANC-1 cell line Proliferation assay. The format is functional, Homo sapiens. Conditions: time 3 day.
Experiment [13] addresses Tau-tubulin kinase 1 (Homo sapiens) (UniProt Q5TCY1). The experiment can be described thus: TTBK1(h) Eurofins kinase panel. The note with it: Compound concentration 1.0 uM.
In experiment [14] the target is Serine/threonine-protein kinase SIK3 (Homo sapiens) (UniProt Q9Y2K2). The experiment can be described thus: SIK3(h) Eurofins kinase panel. The note with it: Compound concentration 1.0 uM.
Experiment [15] has as its target MAP kinase-interacting serine/threonine-protein kinase 2 (Homo sapiens) (UniProt Q9HBH9). The experiment can be described thus: Mnk2(h) Eurofins kinase panel. Conditions: Compound concentration 1.0 uM.
For experiment [16], the target named is Mitogen-activated protein kinase 3 (Homo sapiens) (UniProt P27361). The experiment can be described thus: MAPK1(h) Eurofins kinase panel. Conditions: Compound concentration 1.0 uM.
Experiment [17] concerns the target Tyrosine-protein kinase Lck (Homo sapiens) (UniProt P06239). The experiment can be described thus: Lck(h) activated Eurofins kinase panel. The note with it: Compound concentration 1.0 uM.
The target of experiment [18] is T4, Serine/threonine-protein kinase ULK3 (Homo sapiens) (UniProt Q6PHR2).
T4 sequence (whole entry): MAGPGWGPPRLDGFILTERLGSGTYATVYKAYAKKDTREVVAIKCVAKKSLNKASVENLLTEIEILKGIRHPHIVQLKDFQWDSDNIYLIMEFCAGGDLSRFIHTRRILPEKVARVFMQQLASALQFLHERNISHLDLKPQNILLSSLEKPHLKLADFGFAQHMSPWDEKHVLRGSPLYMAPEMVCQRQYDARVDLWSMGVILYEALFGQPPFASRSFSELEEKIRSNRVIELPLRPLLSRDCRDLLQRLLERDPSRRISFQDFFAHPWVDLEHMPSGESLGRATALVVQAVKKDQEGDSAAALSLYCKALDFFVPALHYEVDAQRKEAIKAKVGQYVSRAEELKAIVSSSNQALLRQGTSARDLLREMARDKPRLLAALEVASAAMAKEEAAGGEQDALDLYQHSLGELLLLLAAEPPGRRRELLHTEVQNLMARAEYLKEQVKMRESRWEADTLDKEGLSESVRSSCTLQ
The experiment can be described thus: ULK3(h) Eurofins kinase panel. The note with it: Compound concentration 1.0 uM.

Experiment [19] has as its target Eukaryotic translation initiation factor 2-alpha kinase 3 (Homo sapiens) (UniProt Q9NZJ5). The experiment can be described thus: PEK(h) Eurofins kinase panel. Conditions: Compound concentration 1.0 uM.
In experiment [20] the target is Calcium/calmodulin-dependent protein kinase type II subunit gamma (Homo sapiens) (UniProt Q13555). The experiment can be described thus: CaMKIIgamma(h) Eurofins kinase panel. Conditions: Compound concentration 1.0 uM.
For experiment [21], the target named is Serine/threonine-protein kinase PRP4 homolog (Homo sapiens) (UniProt Q13523). The experiment can be described thus: PRP4(h) Eurofins kinase panel. Conditions: Compound concentration 1.0 uM.
Sequence of Serine/threonine-protein kinase PRP4 homolog (Homo sapiens) (Q13523 whole entry): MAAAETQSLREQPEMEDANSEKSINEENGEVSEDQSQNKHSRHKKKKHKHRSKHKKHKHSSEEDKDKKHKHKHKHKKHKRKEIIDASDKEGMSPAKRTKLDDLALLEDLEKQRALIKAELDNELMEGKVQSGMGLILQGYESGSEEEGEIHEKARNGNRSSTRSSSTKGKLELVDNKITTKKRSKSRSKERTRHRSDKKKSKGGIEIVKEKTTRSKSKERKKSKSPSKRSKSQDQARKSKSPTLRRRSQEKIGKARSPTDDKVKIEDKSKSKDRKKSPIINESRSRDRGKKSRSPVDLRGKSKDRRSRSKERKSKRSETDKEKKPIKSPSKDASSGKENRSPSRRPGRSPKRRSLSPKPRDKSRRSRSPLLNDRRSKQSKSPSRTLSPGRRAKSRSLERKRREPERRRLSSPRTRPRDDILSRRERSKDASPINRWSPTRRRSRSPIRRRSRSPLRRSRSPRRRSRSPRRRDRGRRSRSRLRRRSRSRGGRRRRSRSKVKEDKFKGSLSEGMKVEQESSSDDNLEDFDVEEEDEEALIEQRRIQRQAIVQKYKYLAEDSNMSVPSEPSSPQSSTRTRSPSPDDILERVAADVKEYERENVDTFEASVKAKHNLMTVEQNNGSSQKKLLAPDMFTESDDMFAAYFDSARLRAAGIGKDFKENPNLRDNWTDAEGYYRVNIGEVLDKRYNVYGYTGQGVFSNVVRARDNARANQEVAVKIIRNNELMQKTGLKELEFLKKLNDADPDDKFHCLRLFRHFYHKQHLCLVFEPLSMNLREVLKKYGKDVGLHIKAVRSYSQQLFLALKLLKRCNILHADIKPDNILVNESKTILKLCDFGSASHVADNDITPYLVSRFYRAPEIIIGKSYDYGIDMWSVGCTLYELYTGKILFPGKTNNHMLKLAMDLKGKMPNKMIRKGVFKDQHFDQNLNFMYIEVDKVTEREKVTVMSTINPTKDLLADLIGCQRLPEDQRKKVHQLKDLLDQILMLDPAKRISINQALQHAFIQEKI
Experiment [22] concerns the target eIF-2-alpha kinase GCN2 (Homo sapiens) (UniProt Q9P2K8). The experiment can be described thus: GCN2(h) Eurofins kinase panel. The note with it: Compound concentration 1.0 uM.

Sequence of Leucine-rich repeat serine/threonine-protein kinase 2 (Homo sapiens) (Q5S007 whole entry): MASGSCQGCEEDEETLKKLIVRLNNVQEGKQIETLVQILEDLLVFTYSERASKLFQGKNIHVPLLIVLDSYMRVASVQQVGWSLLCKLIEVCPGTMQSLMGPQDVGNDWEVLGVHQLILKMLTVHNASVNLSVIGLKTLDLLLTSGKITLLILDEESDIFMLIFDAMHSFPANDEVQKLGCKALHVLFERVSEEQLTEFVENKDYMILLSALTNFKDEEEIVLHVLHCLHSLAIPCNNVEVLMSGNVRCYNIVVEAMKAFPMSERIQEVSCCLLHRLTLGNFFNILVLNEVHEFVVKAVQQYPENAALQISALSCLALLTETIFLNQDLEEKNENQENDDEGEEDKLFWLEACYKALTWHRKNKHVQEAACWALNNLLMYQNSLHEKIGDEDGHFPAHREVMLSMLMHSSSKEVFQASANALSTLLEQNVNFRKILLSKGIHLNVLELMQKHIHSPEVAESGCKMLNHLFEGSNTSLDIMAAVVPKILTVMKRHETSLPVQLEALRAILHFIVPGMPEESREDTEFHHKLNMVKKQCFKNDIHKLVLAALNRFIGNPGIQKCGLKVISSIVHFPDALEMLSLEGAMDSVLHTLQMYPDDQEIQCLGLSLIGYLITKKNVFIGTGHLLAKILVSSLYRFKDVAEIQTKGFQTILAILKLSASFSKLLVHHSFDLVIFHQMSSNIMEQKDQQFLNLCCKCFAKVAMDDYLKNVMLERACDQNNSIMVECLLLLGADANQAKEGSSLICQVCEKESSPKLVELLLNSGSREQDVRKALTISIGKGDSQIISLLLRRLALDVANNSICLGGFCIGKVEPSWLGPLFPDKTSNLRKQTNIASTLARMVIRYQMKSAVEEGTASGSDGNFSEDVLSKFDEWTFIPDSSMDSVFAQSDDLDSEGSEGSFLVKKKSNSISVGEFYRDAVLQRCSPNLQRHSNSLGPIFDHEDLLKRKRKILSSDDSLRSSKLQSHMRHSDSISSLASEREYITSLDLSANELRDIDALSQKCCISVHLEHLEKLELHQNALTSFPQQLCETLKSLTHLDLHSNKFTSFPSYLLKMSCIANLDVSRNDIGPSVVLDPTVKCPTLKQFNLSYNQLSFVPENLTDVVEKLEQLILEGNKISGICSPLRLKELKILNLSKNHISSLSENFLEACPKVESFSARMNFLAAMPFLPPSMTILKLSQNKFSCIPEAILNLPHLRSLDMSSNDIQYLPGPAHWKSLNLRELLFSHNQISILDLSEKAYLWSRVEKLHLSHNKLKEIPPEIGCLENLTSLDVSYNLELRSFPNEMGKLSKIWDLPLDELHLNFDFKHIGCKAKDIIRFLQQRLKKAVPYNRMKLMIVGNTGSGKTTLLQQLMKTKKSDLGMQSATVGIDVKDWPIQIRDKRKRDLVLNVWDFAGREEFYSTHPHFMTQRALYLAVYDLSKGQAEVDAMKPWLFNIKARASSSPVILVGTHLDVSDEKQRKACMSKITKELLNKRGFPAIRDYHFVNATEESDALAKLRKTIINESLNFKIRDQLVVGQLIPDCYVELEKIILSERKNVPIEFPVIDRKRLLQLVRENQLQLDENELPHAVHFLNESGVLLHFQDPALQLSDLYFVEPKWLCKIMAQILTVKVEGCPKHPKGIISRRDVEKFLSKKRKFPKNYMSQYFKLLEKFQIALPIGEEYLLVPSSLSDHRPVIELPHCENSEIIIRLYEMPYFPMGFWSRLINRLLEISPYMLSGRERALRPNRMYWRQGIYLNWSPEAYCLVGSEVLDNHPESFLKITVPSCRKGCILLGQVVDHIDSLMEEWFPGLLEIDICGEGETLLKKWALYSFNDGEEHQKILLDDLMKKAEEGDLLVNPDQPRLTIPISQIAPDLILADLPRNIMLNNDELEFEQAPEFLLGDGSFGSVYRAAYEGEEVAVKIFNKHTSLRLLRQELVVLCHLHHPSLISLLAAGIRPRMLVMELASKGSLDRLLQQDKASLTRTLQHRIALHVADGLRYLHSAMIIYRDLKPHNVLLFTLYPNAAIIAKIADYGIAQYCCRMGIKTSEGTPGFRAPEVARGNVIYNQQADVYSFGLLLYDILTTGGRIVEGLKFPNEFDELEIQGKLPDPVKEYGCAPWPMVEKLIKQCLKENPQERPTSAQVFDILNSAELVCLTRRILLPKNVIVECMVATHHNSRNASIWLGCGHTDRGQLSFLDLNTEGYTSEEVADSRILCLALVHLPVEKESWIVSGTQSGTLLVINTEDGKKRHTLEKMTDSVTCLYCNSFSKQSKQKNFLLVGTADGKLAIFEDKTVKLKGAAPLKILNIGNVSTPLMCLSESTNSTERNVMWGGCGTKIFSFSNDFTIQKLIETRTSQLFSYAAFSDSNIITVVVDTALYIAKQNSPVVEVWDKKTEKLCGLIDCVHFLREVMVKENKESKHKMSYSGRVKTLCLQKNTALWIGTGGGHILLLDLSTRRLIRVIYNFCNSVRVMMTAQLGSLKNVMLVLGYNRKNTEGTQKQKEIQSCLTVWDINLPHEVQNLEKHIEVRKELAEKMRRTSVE
Sequence of Histamine H3 receptor (Homo sapiens) (Q9Y5N1 whole entry): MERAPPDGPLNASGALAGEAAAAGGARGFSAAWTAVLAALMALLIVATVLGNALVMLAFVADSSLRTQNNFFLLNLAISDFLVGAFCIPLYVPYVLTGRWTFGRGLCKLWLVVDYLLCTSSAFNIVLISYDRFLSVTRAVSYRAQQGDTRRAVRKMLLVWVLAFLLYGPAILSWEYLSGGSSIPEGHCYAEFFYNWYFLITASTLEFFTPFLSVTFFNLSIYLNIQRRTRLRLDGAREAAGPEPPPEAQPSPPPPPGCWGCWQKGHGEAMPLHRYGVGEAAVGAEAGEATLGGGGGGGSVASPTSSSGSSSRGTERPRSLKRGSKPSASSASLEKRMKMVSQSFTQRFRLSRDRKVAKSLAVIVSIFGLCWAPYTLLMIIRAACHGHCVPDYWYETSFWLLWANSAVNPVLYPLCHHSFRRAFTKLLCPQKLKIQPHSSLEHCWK
Sequence of Tyrosine-protein kinase Lck (Homo sapiens) (P06239 2-509 limits assumed): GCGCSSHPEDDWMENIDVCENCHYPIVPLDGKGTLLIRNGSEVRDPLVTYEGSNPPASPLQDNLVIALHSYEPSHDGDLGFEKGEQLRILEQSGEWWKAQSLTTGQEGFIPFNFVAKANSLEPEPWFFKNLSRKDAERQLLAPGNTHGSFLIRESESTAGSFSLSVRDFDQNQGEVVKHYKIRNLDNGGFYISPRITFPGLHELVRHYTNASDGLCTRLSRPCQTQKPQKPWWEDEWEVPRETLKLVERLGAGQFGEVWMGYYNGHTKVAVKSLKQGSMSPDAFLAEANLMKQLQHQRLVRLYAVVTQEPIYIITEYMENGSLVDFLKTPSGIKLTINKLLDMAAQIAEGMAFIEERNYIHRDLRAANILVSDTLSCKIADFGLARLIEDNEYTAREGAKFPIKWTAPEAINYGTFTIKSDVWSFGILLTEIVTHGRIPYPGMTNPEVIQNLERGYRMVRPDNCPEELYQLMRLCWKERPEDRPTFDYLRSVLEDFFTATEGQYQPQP

Usually inhibition stands for the drop in the measured response relative to a control, in per cent. Consider `CC1=C(C#N)C(c2ccc3c(c2)c(NC(=O)c2ccccc2C)nn3C)C(C#N)=C(C)N1` [BAY-974], for which the inhibition in experiment [1] was 1.89%.

On to `CCc1ccccc1C(=O)Nc1n[nH]c2c(C)c(F)c(C3C(C#N)=C(C)N(C)C(C)=C3C#N)cc12` [BAY-3827], for which the % residual kinase activity in experiment [2] is 99%; in experiment [3], 112%; in experiment [4], 107%; in experiment [5], 95%; in experiment [6], 93%; in experiment [7], 100%. The % residual kinase activity in experiment [8] was 103%; in [9] it was 96%; in [10], 109%; in experiment [11], 91%; in experiment [12] it was 115%; in [13], 104%. Further, the % residual kinase activity was 84% in experiment [14]; 110% in [15]; 95% in [16]; 108% in [17]; 59% in experiment [18]; 101% in experiment [19]. The % residual kinase activity in [20] was 79%; in [21], 96%; in experiment [22], 100%. Further, the “Cell Proliferation IC50” value in the experiment on SNU-398 was 7.3 µM; with PANC-1, 17.1 µM.
